Assay results: patent US20090181963A1, “3H-[1,2,3]TRIAZOLO[4,5-D]PYRIMIDINE COMPOUNDS, THEIR USE AS mTOR KINASE AND PI3 KINASE INHIBITORS, AND THEIR [sequence]” (Wyeth, priority 2008, published 2009)

Assays:
PI3 Kinase α = PI3 Kinase α (Homo sapiens, UniProt P42336); test: Fluorescence polarization assay for PI3K (PI3 Kinase α); format: biochemical; conditions: diC8-PI(4,5)P2 substrate, 25 μM ATP, one hour at 25° C.
PI3 Kinase γ = PI3 Kinase γ (Homo sapiens, UniProt P48736); test: Fluorescence polarization assay for PI3K (PI3 Kinase γ); format: biochemical; conditions: diC8-PI(4,5)P2 substrate, 25 μM ATP, one hour at 25° C.
Chain of PI3 Kinase γ (P48736 whole entry): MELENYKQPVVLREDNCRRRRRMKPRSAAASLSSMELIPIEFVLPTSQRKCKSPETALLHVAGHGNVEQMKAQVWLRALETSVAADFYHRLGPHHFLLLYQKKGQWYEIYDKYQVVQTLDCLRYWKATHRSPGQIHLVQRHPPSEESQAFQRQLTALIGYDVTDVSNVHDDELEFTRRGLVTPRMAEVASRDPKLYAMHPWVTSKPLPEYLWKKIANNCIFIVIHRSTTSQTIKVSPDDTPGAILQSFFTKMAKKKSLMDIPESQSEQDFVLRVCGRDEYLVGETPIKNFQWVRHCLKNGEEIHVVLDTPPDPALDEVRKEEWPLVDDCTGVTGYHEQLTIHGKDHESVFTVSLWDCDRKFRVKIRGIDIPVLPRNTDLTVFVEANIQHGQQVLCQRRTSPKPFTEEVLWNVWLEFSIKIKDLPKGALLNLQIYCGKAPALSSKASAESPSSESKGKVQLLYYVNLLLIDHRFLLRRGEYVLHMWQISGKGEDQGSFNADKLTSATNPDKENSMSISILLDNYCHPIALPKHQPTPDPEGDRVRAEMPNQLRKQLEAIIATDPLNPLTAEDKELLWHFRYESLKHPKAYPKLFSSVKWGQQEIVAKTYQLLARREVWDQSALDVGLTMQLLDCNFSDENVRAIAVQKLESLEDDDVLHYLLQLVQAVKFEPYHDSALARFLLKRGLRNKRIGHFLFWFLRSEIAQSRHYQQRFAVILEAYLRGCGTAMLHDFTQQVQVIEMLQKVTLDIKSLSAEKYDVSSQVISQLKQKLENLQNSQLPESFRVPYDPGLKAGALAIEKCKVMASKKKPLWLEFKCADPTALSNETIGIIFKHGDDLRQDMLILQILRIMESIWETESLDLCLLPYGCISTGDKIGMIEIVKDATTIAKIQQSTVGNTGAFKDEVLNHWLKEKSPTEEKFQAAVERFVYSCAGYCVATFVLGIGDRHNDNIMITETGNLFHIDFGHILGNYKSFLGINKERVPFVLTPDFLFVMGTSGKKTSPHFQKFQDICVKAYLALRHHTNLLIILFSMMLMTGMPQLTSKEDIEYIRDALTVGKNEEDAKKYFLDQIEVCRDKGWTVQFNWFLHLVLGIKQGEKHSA

Chain of PI3 Kinase α (P42336 whole entry): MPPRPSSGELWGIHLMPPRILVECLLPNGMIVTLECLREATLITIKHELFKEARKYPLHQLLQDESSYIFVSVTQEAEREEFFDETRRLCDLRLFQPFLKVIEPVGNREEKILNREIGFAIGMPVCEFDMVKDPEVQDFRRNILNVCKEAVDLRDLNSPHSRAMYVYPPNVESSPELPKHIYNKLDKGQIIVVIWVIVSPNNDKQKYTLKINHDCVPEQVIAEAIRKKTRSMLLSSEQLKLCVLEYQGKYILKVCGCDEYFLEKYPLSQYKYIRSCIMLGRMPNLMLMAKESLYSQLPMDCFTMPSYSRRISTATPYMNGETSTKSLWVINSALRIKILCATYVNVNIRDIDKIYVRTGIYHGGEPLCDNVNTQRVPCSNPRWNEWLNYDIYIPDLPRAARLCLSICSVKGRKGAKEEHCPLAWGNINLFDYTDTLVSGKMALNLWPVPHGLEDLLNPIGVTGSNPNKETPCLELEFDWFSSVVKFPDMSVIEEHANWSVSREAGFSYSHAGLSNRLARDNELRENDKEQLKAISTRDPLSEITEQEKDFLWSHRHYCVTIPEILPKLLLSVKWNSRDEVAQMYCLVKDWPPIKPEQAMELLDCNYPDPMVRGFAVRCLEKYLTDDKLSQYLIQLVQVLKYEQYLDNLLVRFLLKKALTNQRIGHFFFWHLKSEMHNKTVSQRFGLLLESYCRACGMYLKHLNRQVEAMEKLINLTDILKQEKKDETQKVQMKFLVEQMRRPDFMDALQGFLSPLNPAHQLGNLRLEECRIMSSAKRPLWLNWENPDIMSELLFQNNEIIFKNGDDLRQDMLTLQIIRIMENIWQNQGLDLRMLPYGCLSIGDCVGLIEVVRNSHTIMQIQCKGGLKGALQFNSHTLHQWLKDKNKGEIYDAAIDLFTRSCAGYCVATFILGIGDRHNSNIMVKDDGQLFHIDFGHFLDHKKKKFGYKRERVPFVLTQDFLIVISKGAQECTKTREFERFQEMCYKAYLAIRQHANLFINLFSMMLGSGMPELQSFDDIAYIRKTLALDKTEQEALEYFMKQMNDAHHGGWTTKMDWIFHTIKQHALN
Chain of PI3 Kinase α (P27986 whole entry partner): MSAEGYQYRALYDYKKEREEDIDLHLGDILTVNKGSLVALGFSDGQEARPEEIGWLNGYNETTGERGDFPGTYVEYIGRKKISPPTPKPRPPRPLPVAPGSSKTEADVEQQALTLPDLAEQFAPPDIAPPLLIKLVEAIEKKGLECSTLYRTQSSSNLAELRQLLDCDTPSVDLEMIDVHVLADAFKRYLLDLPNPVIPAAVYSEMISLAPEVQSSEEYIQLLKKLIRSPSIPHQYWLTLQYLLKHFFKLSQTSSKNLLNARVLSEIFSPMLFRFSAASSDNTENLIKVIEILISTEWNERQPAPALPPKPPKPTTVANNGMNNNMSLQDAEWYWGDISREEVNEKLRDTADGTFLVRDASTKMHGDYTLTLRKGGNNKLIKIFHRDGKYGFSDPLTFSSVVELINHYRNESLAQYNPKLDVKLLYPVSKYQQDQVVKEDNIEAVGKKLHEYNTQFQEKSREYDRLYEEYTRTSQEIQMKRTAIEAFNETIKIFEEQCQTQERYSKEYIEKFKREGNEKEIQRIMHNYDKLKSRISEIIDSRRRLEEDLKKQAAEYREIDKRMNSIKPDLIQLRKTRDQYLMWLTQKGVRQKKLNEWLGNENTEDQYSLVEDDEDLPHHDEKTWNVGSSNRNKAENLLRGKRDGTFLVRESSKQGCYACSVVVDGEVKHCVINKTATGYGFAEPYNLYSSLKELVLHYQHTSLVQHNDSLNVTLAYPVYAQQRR

Row | IC50 (PI3 Kinase α) [nM] | IC50 (PI3 Kinase γ) [nM] | Compound
1 | 692 | 782 | CC(=O)NCCNC(=O)c1ccc(Cn2nnc3c(N4CCOCC4)nc(-c4cccc(O)c4)nc32)cc1 [Example 210, N-(2-acetamidoethyl)-4-{[5-(3-hydroxyphenyl)-7-morpholin-4-yl-3H-[1,2,3]triazolo[4,5-d]pyrimidin-3-yl]methyl}benzamide]
2 | 8 | 37 | CCn1nnc2c(N3CCOCC3)nc(-c3ccc(NC(=O)Nc4ccnc(C)c4)cc3)nc21 [Example 35, 1-[4-(3-ethyl-7-morpholin-4-yl-3H-[1,2,3]triazolo[4,5-d]pyrimidin-5-yl)phenyl]-3-(2-methylpyridin-4-yl)urea]
3 | 49.7 | 620 | CC(C)n1nnc2c(N3CCOCC3)nc(-c3ccc(NC(N)=O)cc3)nc21 [Example 96, [4-(3-isopropyl-7-morpholin-4-yl-3H-[1,2,3]triazolo[4,5-d]pyrimidin-5-yl)-phenyl]-urea]
4 | 5.3 | 20 | 1-{4-[3-(2-hydroxyethyl)-7-morpholin-4-yl-3H-[1,2,3]triazolo[4,5-d]pyrimidin-5-yl]phenyl}-3-pyridin-4-ylurea [Example 183]
5 | 332 | 1210 | Oc1cccc(-c2nc(N3CCOCC3)c3nnn(CCCCN4CCCC4)c3n2)c1 [Example 205, 3-[7-Morpholin-4-yl-3-(4-pyrrolidin-1-ylbutyl)-3H-[1,2,3]triazolo[4,5-d]pyrimidin-5-yl]phenol]
6 | 75.5 | 1060 | Oc1cccc(-c2nc(N3CCOCC3)c3nnn(CCc4ccccn4)c3n2)c1 [Example 196, 3-[7-Morpholin-4-yl-3-(2-pyridin-2-yl-ethyl)-3H-[1,2,3]triazolo[4,5-d]pyrimidin-5-yl]-phenol]
7 | 911 | 544 | O=C(c1ccc(Cn2nnc3c(N4CCOCC4)nc(-c4cccc(O)c4)nc32)cc1)N1CCCC1 [Example 228, 3-{7-morpholin-4-yl-3-[4-(pyrrolidin-1-ylcarbonyl)benzyl]-3H-[1,2,3]triazolo[4,5-d]pyrimidin-5-yl}phenol]
8 | 1410 | 9110 | CCn1nnc2c(N3CCOCC3)nc(-c3ccc(N)c(OC)c3)nc21 [Example 175, 4-(3-ethyl-7-morpholin-4-yl-3H-[1,2,3]triazolo[4,5-d]pyrimidin-5-yl)-2-methoxyaniline]
9 | 289 | 2730 | O=C(NCCCN1CCCC1)c1ccc(Cn2nnc3c(N4CCOCC4)nc(-c4cccc(O)c4)nc32)cc1 [Example 211, 4-{[5-(3-hydroxyphenyl)-7-morpholin-4-yl-3H-[1,2,3]triazolo[4,5-d]pyrimidin-3-yl]methyl}-N-(3-pyrrolidin-1-ylpropyl)benzamide]
10 | 3 | 19.5 | O=C(Nc1ccc(-c2nc(N3CCOCC3)c3nnn(C4CC4)c3n2)cc1)Nc1cccs1 [Example 80, 1-(4-(3-cyclopropyl-7-morpholino-3H-[1,2,3]triazolo[4,5-d]pyrimidin-5-yl)phenyl)-3-(thiophen-2-yl)urea]
11 | 200 | 3240 | CNC(=O)Nc1ccc(-c2nc(N3CCOCC3)c3nnn(C4CCN(C(=O)OC(C)(C)C)CC4)c3n2)cc1 [Example 168, tert-butyl 4-(5-{4-[(methylcarbamoyl)amino]phenyl}-7-morpholin-4-yl-3H-[1,2,3]triazolo[4,5-d]pyrimidin-3-yl)piperidine-1-carboxylate]
12 | 132 | 108 | NCCCCn1nnc2c(N3CCOCC3)nc(-c3cccc(O)c3)nc21 [Example 204, 3-[3-(4-Aminobutyl)-7-morpholin-4-yl-3H-[1,2,3]triazolo[4,5-d]pyrimidin-5-yl]phenol]
13 | 67 | 735 | Oc1cccc(-c2nc(N3CCOCC3)c3nnn(C4CCN(Cc5ccccn5)CC4)c3n2)c1 [Example 149, 3-{7-morpholin-4-yl-3-[1-(pyridin-2-ylmethyl)piperidin-4-yl]-3H-[1,2,3]triazolo[4,5-d]pyrimidin-5-yl}phenol]
14 | 370 | 1380 | Nc1ccc(-c2nc(N3CCOCC3)c3nnn(CC(F)(F)F)c3n2)cc1 [Example 133, 4-[7-morpholin-4-yl-3-(2,2,2-trifluoroethyl)-3H-[1,2,3]triazolo[4,5-d]pyrimidin-5-yl]aniline]
15 | 25 | 78 | CC(C)n1nnc2c(N3CCOCC3)nc(-c3ccc(NC(=O)Nc4ccc(N5CCOCC5)cc4)cc3)nc21 [Example 85, 1-[4-(3-Isopropyl-7-morpholin-4-yl-3H-[1,2,3]triazolo[4,5-d]pyrimidin-5-yl)-phenyl]-3-(4-morpholin-4-yl-phenyl)-urea]
16 | 4 | 8.5 | O=C(Nc1ccccc1)Nc1ccc(-c2nc(N3CCOCC3)c3nnn(-c4cccc(C(=O)O)c4)c3n2)cc1 [Example 123, 3-(7-morpholin-4-yl-5-{4-[(phenylcarbamoyl)amino]phenyl}-3H-[1,2,3]triazolo[4,5-d]pyrimidin-3-yl)benzoic acid]
17 | 282 | 1380 | O=C(NCCN1CCCC1)c1ccc(Cn2nnc3c(N4CCOCC4)nc(-c4cccc(O)c4)nc32)cc1 [Example 213, 4-{[5-(3-hydroxyphenyl)-7-morpholin-4-yl-3H-[1,2,3]triazolo[4,5-d]pyrimidin-3-yl]methyl}-N-(2-pyrrolidin-1-ylethyl)benzamide]
18 | 100 | 620 | CNC(=O)Nc1ccc(-c2nc(N3CCOCC3)c3nnn(C4CCN(Cc5ccccc5)CC4)c3n2)cc1 [Example 6, 1-{4-[3-(1-benzylpiperidin-4-yl)-7-morpholin-4-yl-3H-[1,2,3]triazolo[4,5-d]pyrimidin-5-yl]phenyl}-3-methylurea]
19 | 7 | 55.5 | CCn1nnc2c(N3CCOC[C@@H]3C)nc(-c3ccc(NC(=O)Nc4ccncc4)cc3)nc21 [Example 71, (S)-1-(4-(3-ethyl-7-(3-methylmorpholino)-3H-[1,2,3]triazolo[4,5-d]pyrimidin-5-yl)phenyl)-3-(pyridin-4-yl)urea]
20 | 76.5 | 144 | Nc1ncc(CN2CCC(n3nnc4c(N5CCOCC5)nc(-c5cncc(O)c5)nc43)CC2)s1 [Example 171, 5-(3-{1-[(2-amino-1,3-thiazol-5-yl)methyl]piperidin-4-yl}-7-morpholin-4-yl-3H-[1,2,3]triazolo[4,5-d]pyrimidin-5-yl)pyridin-3-ol]
21 | 245 | 2070 | O=C(Cn1nnc2c(N3CCOCC3)nc(-c3cccc(CO)c3)nc21)Nc1ccc(F)cc1 [Example 238, N-(4-fluorophenyl)-2-{5-[3-(hydroxymethyl)phenyl]-7-morpholin-4-yl-3H-[1,2,3]triazolo[4,5-d]pyrimidin-3-yl}acetamide]
22 | 1340 | > 10000 | COC(Cn1nnc2c(N3CCOCC3)nc(-c3ccc(N)cc3)nc21)OC [Example 178, 4-[3-(2,2-dimethoxyethyl)-7-morpholin-4-yl-3H-[1,2,3]triazolo[4,5-d]pyrimidin-5-yl]aniline]

Row | Compound | IC50 (PI3 Kinase α) [nM] | IC50 (PI3 Kinase γ) [nM]
23 | O=C(Cc1ccccc1)N1CCN(CCn2nnc3c(N4CCOCC4)nc(-c4cccc(O)c4)nc32)CC1 [Example 104, 3-(7-morpholin-4-yl-3-{2-[4-(phenylacetyl)piperazin-1-yl]ethyl}-3H-[1,2,3]triazolo[4,5-d]pyrimidin-5-yl)phenol] | 1170 | 3030
